Tests used:
[1] = tested on: winter wheat (Vershin variety); assay: Winter wheat seed treatment with BHMPA salts: germination energy and germination rate; assay type: in vivo
Summary of the method: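 Corn, winter wheat and rice seeds (50 per dish, on filter paper) were soaked for 1 h in BHMPA or its metal salts at 1·10^−6-1·10^−12%, with water as control. Germination energy was read on day 4 and germination rate on day 8 for wheat and day 7 for rice and corn, following GOST 12038-84, as the mean of four replicates.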

[2] = tested on: corn (Krasnodar 385 MV variety); assay: Corn seed treatment with BHMPA salts: germinating power; assay type: in vivo
Summary of the method: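 Seeds (50 per Petri dish on two layers of filter paper) soaked 1 h in BHMPA or its Ca, Mg, Na, Co, Mn, Cu or Zn salts at 1·10^−6-1·10^−12%, with water controls. Germination energy read on day 4, germination on day 8 (wheat) or day 7 (rice, corn), as % means of four replicates. Germinating power taken as root and sprout length plus wet and dry mass per 100 seedlings.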

[3] = winter wheat Vershin, 1·10^−6% solution
[4] = winter wheat Vershin, 1·10^−7% solution
[5] = winter wheat Vershin, 1·10^−8% solution
[6] = winter wheat Vershin, 1·10^−9% solution
[7] = winter wheat Vershin, 1·10^−10% solution
[8] = winter wheat Vershin, 1·10^−11% solution
[9] = winter wheat Vershin, 1·10^−12% solution
[10] = winter wheat, comparative study vs Melaphen, 1·10^−9% solution
[11] = corn seeds, solution concentration 1 · 10^−6%, sodium salt of BHMPA
[12] = corn seeds, solution concentration 1 · 10^−7%, sodium salt of BHMPA
[13] = corn seeds, solution concentration 1 · 10^−8%, sodium salt of BHMPA
[14] = corn seeds, solution concentration 1 · 10^−9%, sodium salt of BHMPA
[15] = corn seeds, solution concentration 1 · 10^−10%, sodium salt of BHMPA
[16] = corn seeds, solution concentration 1 · 10^−11%, sodium salt of BHMPA
[17] = corn seeds, solution concentration 1 · 10^−12%, sodium salt of BHMPA

In the case of `O=P([O-])(CO)CO.[Na+]` [Na-salt, Sodium BHMPA Salt], the Germination energy [1, 3] was 84.4%, the Germination rate [1, 3] was 86.0% and the Germination energy [1, 4] was 86.7%. It also gave a Germination rate [1, 4] of 89.0%, a Germination energy [1, 5] of 90.2% and a Germination rate [1, 5] of 94.0%. It also gave a Germination energy [1, 6] of 92.3%, a Germination rate [1, 6] of 95.3% and a Germination energy [1, 7] of 88.4%. It also gave a Germination rate [1, 7] of 92.0%, a Germination energy [1, 8] of 85.0% and a Germination rate [1, 8] of 88.0%. For the same molecule, the Germination energy [1, 9] was 83.2%, the Germination rate [1, 9] was 86.3% and the Germination energy [1, 10] was 87.3%. The Germination rate [1, 10] was 93.7%, the “optimum concentration for treating corn seeds before sowing” value ([2]; corn) was 1·10^−10% and the “Length, root” value [2, 11] was 4.5 cm. The “Length, root, + % to control” value [2, 11] was −4%, the “Length, sprout” value [2, 11] was 2.4 cm and the “Length, sprout, + % to control” value [2, 11] was −14%. The “Mass, dry, root” value [2, 11] was 0.99 g/100 plantlings, the “Mass, dry, root, + % to control” value [2, 11] was −19% and the “Mass, dry, sprout” value [2, 11] was 0.69 g/100 plantlings. For the same molecule, the “Mass, dry, sprout, + % to control” value [2, 11] was −4%, the “Mass, wet, root” value [2, 11] was 5.95 g/100 plantlings and the “Mass, wet, root, + % to control” value [2, 11] was −12%. The “Mass, wet, sprout” value [2, 11] was 4.34 g/100 plantlings, the “Mass, wet, sprout, + % to control” value [2, 11] was −5% and the “Length, root” value [2, 12] was 4.9 cm. For the same molecule, the “Length, root, + % to control” value [2, 12] was 4%, the “Length, sprout” value [2, 12] was 2.6 cm and the “Length, sprout, + % to control” value [2, 12] was −7%. For the same molecule, the “Mass, dry, root” value [2, 12] was 1.03 g/100 plantlings, the “Mass, dry, root, + % to control” value [2, 12] was −15.5% and the “Mass, dry, sprout” value [2, 12] was 0.77 g/100 plantlings. For the same molecule, the “Mass, dry, sprout, + % to control” value [2, 12] was 7%, the “Mass, wet, root” value [2, 12] was 6.72 g/100 plantlings and the “Mass, wet, root, + % to control” value [2, 12] was −1%. For the same molecule, the “Mass, wet, sprout” value [2, 12] was 4.62 g/100 plantlings, the “Mass, wet, sprout, + % to control” value [2, 12] was 1% and the “Length, root” value [2, 13] was 5.0 cm. For the same molecule, the “Length, root, + % to control” value [2, 13] was 6%, the “Length, sprout” value [2, 13] was 2.8 cm and the “Length, sprout, + % to control” value [2, 13] was 0%. For the same molecule, the “Mass, dry, root” value [2, 13] was 1.18 g/100 plantlings, the “Mass, dry, root, + % to control” value [2, 13] was −3% and the “Mass, dry, sprout” value [2, 13] was 0.86 g/100 plantlings. For the same molecule, the “Mass, dry, sprout, + % to control” value [2, 13] was 19%, the “Mass, wet, root” value [2, 13] was 6.93 g/100 plantlings and the “Mass, wet, root, + % to control” value [2, 13] was 2%. For the same molecule, the “Mass, wet, sprout” value [2, 13] was 4.74 g/100 plantlings, the “Mass, wet, sprout, + % to control” value [2, 13] was 4% and the “Length, root” value [2, 14] was 5.2 cm. For the same molecule, the “Length, root, + % to control” value [2, 14] was 11%, the “Length, sprout” value [2, 14] was 3.0 cm and the “Length, sprout, + % to control” value [2, 14] was 7%. The “Mass, dry, root” value [2, 14] was 1.25 g/100 plantlings, the “Mass, dry, root, + % to control” value [2, 14] was 2% and the “Mass, dry, sprout” value [2, 14] was 0.69 g/100 plantlings. The “Mass, dry, sprout, + % to control” value [2, 14] was 26%, the “Mass, wet, root” value [2, 14] was 7.08 g/100 plantlings and the “Mass, wet, root, + % to control” value [2, 14] was 4%. For the same molecule, the “Mass, wet, sprout” value [2, 14] was 4.91 g/100 plantlings, the “Mass, wet, sprout, + % to control” value [2, 14] was 7% and the “Length, root” value [2, 15] was 5.5 cm. For the same molecule, the “Length, root, + % to control” value [2, 15] was 17%, the “Length, sprout” value [2, 15] was 3.1 cm and the “Length, sprout, + % to control” value [2, 15] was 11%. For the same molecule, the “Mass, dry, root” value [2, 15] was 1.30 g/100 plantlings, the “Mass, dry, root, + % to control” value [2, 15] was 6.5% and the “Mass, dry, sprout” value [2, 15] was 1.12 g/100 plantlings. The “Mass, wet, root” value [2, 15] was 7.19 g/100 plantlings, the “Mass, wet, sprout” value [2, 15] was 5.35 g/100 plantlings and the “Mass, wet, sprout, + % to control” value [2, 15] was 17%. The “Length, root” value [2, 16] was 5.3 cm, the “Length, root, + % to control” value [2, 16] was 13% and the “Length, sprout” value [2, 16] was 2.9 cm. For the same molecule, the “Length, sprout, + % to control” value [2, 16] was 3.5%, the “Mass, dry, root” value [2, 16] was 1.26 g/100 plantlings and the “Mass, dry, root, + % to control” value [2, 16] was 3%. The “Mass, dry, sprout” value [2, 16] was 0.92 g/100 plantlings, the “Mass, dry, sprout, + % to control” value [2, 16] was 28% and the “Mass, wet, root” value [2, 16] was 6.88 g/100 plantlings. The “Mass, wet, root, + % to control” value [2, 16] was 1%, the “Mass, wet, sprout” value [2, 16] was 4.99 g/100 plantlings and the “Mass, wet, sprout, + % to control” value [2, 16] was 9%. For the same molecule, the “Length, root” value [2, 17] was 4.6 cm, the “Length, root, + % to control” value [2, 17] was −2% and the “Length, sprout” value [2, 17] was 2.6 cm. For the same molecule, the “Length, sprout, + % to control” value [2, 17] was −7%, the “Mass, dry, root” value [2, 17] was 0.95 g/100 plantlings and the “Mass, dry, root, + % to control” value [2, 17] was −22%. The “Mass, dry, sprout” value [2, 17] was 0.80 g/100 plantlings, the “Mass, dry, sprout, + % to control” value [2, 17] was 11% and the “Mass, wet, root” value [2, 17] was 6.12 g/100 plantlings. The “Mass, wet, root, + % to control” value [2, 17] was −10%, the “Mass, wet, sprout” value [2, 17] was 4.37 g/100 plantlings and the “Mass, wet, sprout, + % to control” value [2, 17] was −4%. The “effectiveness on germinating power” value ([2]; corn, 1·10^−6% and 1·10^−12% solutions) was “ineffective”, the “Length, root, + % to control” value ([2]; corn, 1·10^−10% solution) was 17% and the “Length, sprout, + % to control” value ([2]; corn, 1·10^−10% solution) was 11%. The “Mass, dry, root, + % to control” value ([2]; corn, 1·10^−10% solution) was 6.5%, the “Mass, dry, sprout, + % to control” value ([2]; corn, 1·10^−10% solution) was 55.5% and the “Mass, wet, root, + % to control” value ([2]; corn, 1·10^−10% solution) was 6%. For the same molecule, the “Mass, wet, sprout, + % to control” value ([2]; corn, 1·10^−10% solution) was 17%.
